Reference: patent publication US8288107B2, “Materials and methods for detecting interaction of CFTR polypeptides” (Florida State University Research Foundation, priority 1999, dated 2012)

Legend:
YRG2-WT strain = assay: Colony formation on SC-HIS-LEU-TRP media, YRG2-WT strain; type: cell-based, yeast; details: 1.5 mM in SC-HIS-LEU-TRP media; 30° C.; three days
Procedure: (§1) When the YRG2-ΔF strain was streaked onto solid media (SC-HIS, -LEU, -TRP) and incubated at 21° C., colonies formed within three days (Table 2). The YRG2-ΔF colonies were approximately the same size as colonies produced by YRG2-WT grown under the same conditions. However, when YRG2-ΔF was streaked onto SC-HIS-LEU-TRP solid media and incubated at 30° C., only small colonies were apparent after three days (substantially smaller in size than YRG2-WT colonies grown under the same growth conditions). Colonies were not apparent (or were detectable only as extremely small micro-colonies) when YRG2-ΔF was streaked onto solid SC-HIS, -LEU, -TRP media and incubated at 34° C. The ΔF508 mutation thus conferred a temperature-sensitive HIS+ phenotype to the yeast strain containing pADPN-ΔF and pBDPN-ΔF. To further enhance the temperature-sensitive HIS− colony phenotype of the YRG2-ΔF strain relative to the YRG2-WT strain, it is advantageous to incorporate 3-amino-1,2,4-triazole at a concentration of 1.5 mM into the SC-HIS-LEU-TRP media.

YRG2-ΔF strain = assay: Colony formation on SC-HIS-LEU-TRP media, YRG2-ΔF strain; type: cell-based, yeast; details: 1.5 mM in SC-HIS-LEU-TRP media; 30° C.; three days
Procedure: as §1
To use the YRG2-ΔF strain for screening purposes, a lawn of the YRG2-ΔF strain is spread onto selective media. This media contains yeast nitrogen base and all amino acids except for histidine, leucine, and tryptophan. The media also contains 3-amino 1,2,4-triazole at a concentration of 1.5 mM. […]

[1] = target: T1, NBD1 ΔF508 domain of CFTR (dimerization) (Homo sapiens, UniProt P13569, DEL508-508/V470M); assay: Yeast two-hybrid growth assay with YRG2-ΔF strain on selective media lacking histidine; type: cell-based; details: 1.5M glycerol in growth media; 37° C.; media lacking leucine, tryptophan and histidine
T1 construct: expressed in transfected cells; host or cells: Saccharomyces cerevisiae strain YRG2 (Stratagene), transformed with pBDPN-ΔF and pADPN-ΔF = YRG2-ΔF
T1 sequence (P13569 with tags, fused parts or gaps V470M/DEL508-508): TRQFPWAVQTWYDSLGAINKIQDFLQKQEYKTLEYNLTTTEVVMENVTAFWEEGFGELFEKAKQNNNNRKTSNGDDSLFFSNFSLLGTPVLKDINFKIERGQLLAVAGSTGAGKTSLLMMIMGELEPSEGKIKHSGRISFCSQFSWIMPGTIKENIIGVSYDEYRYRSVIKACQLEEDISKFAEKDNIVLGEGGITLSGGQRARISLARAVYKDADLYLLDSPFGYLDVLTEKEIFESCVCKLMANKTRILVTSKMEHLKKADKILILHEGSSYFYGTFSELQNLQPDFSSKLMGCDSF
T1 sequence (P13569 with tags, fused parts or gaps V470M/DEL508-508): as above
Procedure: FIGS. 2A-2C show growth of two-hybrid yeast strains containing wildtype and mutant CFTR NBD1. The yeast strain YRG2 was transformed with pADGAL4 and pBDGAL4 constructs containing wildtype and mutant CFTR NBD1 as indicated. Each strain was grown in synthetic complete media lacking leucine and tryptophan, and equal aliquots of cells in 10-fold dilutions were spotted to synthetic complete media lacking leucine, tryptophan and histidine. Dilutions for each strain proceed from right to left, with the spots from most dilute cultures corresponding to the tapered end of the triangle. Plates were incubated at either 21° C. (FIG. 2A) or 37° C. (FIG. 2B) (for 3 days and 5 days respectively). Glycerol was added to the media to a final concentration of 1.5 M as indicated (1.5 M Glyc) (FIG. 2C).
The present invention concerns methods for screening chemical compounds for drug candidates with activity to correct the dimerization defect associated with mutant CFTR NBD1 containing the ΔF508 mutation. […] If the sample tested is a pure compound, the compound can then be analyzed further in secondary assays to determine its activity to restore CFTRΔF508 cAMP-stimulated chloride channel activity in mammalian cells expressing CFTRΔF508 (Sheppard et al., 1994). […]

## Nc1nc[nH]n1 [3-amino-1,2,4-triazole]
YRG2-WT strain
  colony formation of YRG2-WT strain: does not inhibit colony formation
YRG2-ΔF strain
  colony formation of YRG2-ΔF strain: prevents colony formation

## OCC(O)CO [glycerol]
[1]
  rescue of temperature-sensitive dimerization of mutant NBD1 containing ΔF508: rescued
